Measured values reported in ChEMBL document CHEMBL3137381, “MMV Box Onchocerca lienalis screening set”.

Key:
Assay type in all cases: functional
[1] = system: Onchocerca lienalis; test: MMV: Percent motility assay at a compound concentration of 1.9e-7 M. Activity score legend: 3: Active, 2: Moderately active; 1: Inactive, 0: Toxic; conditions: at 0.19 µM
[2] = system: Onchocerca lienalis; test: MMV: Percent motility assay at a compound concentration of 3.1e-6 M. Activity score legend: 3: Active, 2: Moderately active; 1: Inactive, 0: Toxic; conditions: at 3.1 µM
[3] = system: Onchocerca lienalis; test: MMV: Percent motility assay at a compound concentration of 1.25e-5 M. Activity score legend: 3: Active, 2: Moderately active; 1: Inactive, 0: Toxic; conditions: at 12.5 µM
[4] = system: Onchocerca lienalis; test: MMV: Percent motility assay at a compound concentration of 7.8e-7 M. Activity score legend: 3: Active, 2: Moderately active; 1: Inactive, 0: Toxic; conditions: at 0.78 µM

| Compound | Motility [1] [%] | Motility [2] [%] | Motility [3] [%] | Motility [4] [%] |
| --- | --- | --- | --- | --- |
| COc1ccc(-c2cc3c(nn2)-c2ccccc2C3=O)cc1 | 100 | 100 | 100 | 100 |
| COc1ccc(C2c3ccc4ccccc4c3Oc3ncn(CCCN(C)C)c(=N)c32)cc1 (centres undefined) | 100 | 100 | 100 | 100 |
| c1ccc(/C2=N/c3ccccc3/N=C(/c3ccccc3)c3ccccc32)cc1 | 100 | 100 | 100 | 100 |
| CCOC(=O)c1c(C)n(-c2ccccc2)c2ccc(OC(=O)c3cc(OC)c(OC)c(OC)c3)cc12 | 100 | 100 | 100 | 100 |
| COc1ccc(C2c3ccc4ccccc4c3Oc3ncn(CCCn4ccnc4)c(=N)c32)cc1OC (centres undefined) | 100 | 100 | 100 | 100 |
| CN(N=O)C1=C(NC2CCCCC2)C(=O)c2ccccc2C1=O | 100 | 100 | 100 | 100 |
| CCOC(=O)C1=C(C)N=c2sc(=Cc3ccccc3O)c(=O)n2C1c1ccc(OC)c2ccccc12 (centres undefined) | 100 | 100 | 100 | 100 |
| COc1ccc(CN2CCCC(C(=O)c3ccc(C(F)(F)F)cc3)C2)c(O)c1 (centres undefined) | 100 | 100 | 100 | 100 |
| O=C(NC1CCCCC1)C(c1cccs1)N(CCc1ccccc1)C(=O)c1ccco1 (centres undefined) | 100 | 100 | 100 | 100 |
| CC(Oc1ccc(NC(=O)c2cccs2)cc1)C(=O)c1ccc(Cl)cc1 (centres undefined) | 100 | 100 | 100 | 100 |
| Cl.c1ccc2c(NCCCCCCNc3c4c(nc5ccccc35)CCCC4)c3c(nc2c1)CCCC3 | 100 | 100 | 100 | 100 |
| Brc1ccc(Nc2nc3ccccc3nc2Nc2ccc(Br)cc2)cc1 | 100 | 100 | 100 | 100 |
| O=C(NC1CCN(Cc2ccccc2)CC1)c1cc(C(=O)NC2CCN(Cc3ccccc3)CC2)cc(C(=O)NC2CCN(Cc3ccccc3)CC2)c1 | 100 | 100 | 100 | 100 |
| Nc1ccc(-c2nc3cc(Cc4ccc5[nH]c(-c6ccc(N)cc6)nc5c4)ccc3[nH]2)cc1 | 100 | 66.66 | 0 | 100 |
| COc1ccc(-c2cn3c(C(=O)Nc4ccccc4Cl)c(-c4ccccc4)c4c3n2CCCC4)cc1 | 100 | 100 | 66.66 | 100 |
| CCCCOC(=O)c1ccc(Nc2cc(C)nc3ccc(OC)cc23)cc1 | 100 | 100 | 100 | 100 |
| Cc1cc(Nc2ccc(OCc3ccccc3)cc2)nc2cc(O)ccc12 | 100 | 100 | 66.66 | 100 |
| CCN(CC)CCNc1ccnc2cc3ccccc3cc12.O=P(O)(O)O | 100 | 100 | 100 | 100 |
| N=c1c2ccccc2nnn1-c1cccc(C(F)(F)F)c1 | 100 | 100 | 100 | 100 |
| COc1cc(-c2nc(-c3ccc(Sc4ccccc4)cc3)c(-c3ccccc3)[nH]2)cc(OC)c1O | 100 | 100 | 100 | 100 |
| COc1ccc(C2NCCc3c2[nH]c2ccccc32)cc1CN1CCN(c2ccc(F)cc2)CC1.Cl (centres undefined) | 100 | 100 | 100 | 100 |
| OC(Cn1nnc2ccccc21)Cn1c2ccc(Br)cc2c2cc(Br)ccc21 (centres undefined) | 100 | 100 | 100 | 100 |
| CCOc1ccc(-n2cc(-c3ccccc3)c3c(SCc4cc(C)ccc4C)ncnc32)cc1 | 100 | 100 | 100 | 100 |
| Cc1ccc(C)c(Cn2c(N3CCC(C(=O)NCc4cccs4)CC3)nc3ccccc32)c1 | 100 | 100 | 100 | 100 |
| Cc1ccccc1OCCSc1nc2ccc(NC(=O)c3cccs3)cc2s1 | 100 | 100 | 100 | 100 |
| CCOc1cc2c(cc1OCC)C(c1cc(Cl)ccc1O)NCC2 (centres undefined) | 100 | 100 | 100 | 100 |

| Compound | Motility [1] [%] | Motility [2] [%] | Motility [3] [%] | Motility [4] [%] |
| --- | --- | --- | --- | --- |
| COc1ccc(C2C(C(=O)Nc3cccc(OC)c3)c3ccccc3C(=O)N2C2CCCCC2)cc1 (centres undefined) | 100 | 100 | 100 | 100 |
| c1ccc2c(NCCc3c[nH]c4ccccc34)c3ccccc3nc2c1 | 100 | 100 | 100 | 100 |
| CCN(CC)CCCNc1ccnc2cc3ccccc3cc12 | 100 | 100 | 100 | 100 |
| O=C(Nc1ccc(-c2nc3cc4ccccc4cc3[nH]2)cc1)c1cccc(Br)c1 | 100 | 100 | 100 | 100 |
| Cc1ccc(-c2nc3ccccc3o2)cc1NCc1cc(Cc2ccccc2)ccc1O | 100 | 100 | 100 | 100 |
| COc1ccc(C(O)(CCC(C)C)C(CN2CCOCC2)c2ccc(Cl)cc2)cc1.Cl (centres undefined) | 100 | 100 | 100 | 100 |
| CCCOCc1cc(CN2CCN(c3cccc(Cl)c3)CC2)c(O)c2ncccc12 | 100 | 100 | 100 | 100 |
| O=C(Cc1ccccc1)NC(c1ccc(Cl)cc1)c1c(O)ccc2ccccc12 (centres undefined) | 100 | 100 | 100 | 100 |
| CCOc1ccc2c(c1)CN(Cc1ccc(Cl)cc1)CO2 | 100 | 100 | 100 | 100 |
| c1ccc(CNc2nc(Nc3ccccc3)nc3ccccc23)cc1 | 100 | 100 | 0 | 100 |
| COc1ccc(C(=O)NC(c2ccccc2Cl)c2cc(Cl)c3cccnc3c2O)cc1 (centres undefined) | 100 | 100 | 100 | 100 |
| Cc1cccc(N2C(=O)C3C(C2=O)C2(c4ccccc4)C(=O)C3(c3ccccc3)C(c3ccc4c(c3)OCO4)=C2c2ccc3c(c2)OCO3)c1 (centres undefined) | 100 | 100 | 100 | 100 |
| CCCc1c(C)nc2ccc(Br)cc2c1O | 100 | 100 | 100 | 100 |
| Cc1ccc(F)cc1NC(=O)c1cc(Cl)ccc1Nc1ccccc1 | 100 | 100 | 100 | 100 |
| CCOc1ccc(Nc2c3ccccc3nc3ccccc23)cc1.Cl | 100 | 100 | 100 | 100 |
| CCCCCCc1cc2cc(-c3nc4ccccc4[nH]3)c(=Nc3ccccc3C)oc2cc1O | 100 | 100 | 100 | 100 |
| CCCCCCC(O)(c1ccc(F)cc1)C(CN1CCOCC1)c1ccccc1.Cl (centres undefined) | 100 | 100 | 100 | 100 |
| COc1cc(OC)cc(N2C(=O)N(Cc3ccc(C(C)(C)C)cc3)c3ccccc3S2(=O)=O)c1 | 100 | 100 | 33.33 | 100 |
| CCOc1c(Br)cc(C2C(C(=O)OC)=CN(C)C=C2C(=O)OC)cc1OC | 100 | 100 | 100 | 100 |
| COc1ccc2sc(N(Cc3cccnc3)C(=O)c3ccc(C#N)cc3)nc2c1 | 100 | 100 | 100 | 100 |
| CC1CC2=C(CC1CNCCCN(C)C)C(C)(C)CCC2 (centres undefined) | 100 | 100 | 100 | 100 |
| CN(C)c1ccc(N=Cc2ccc(N3CCOCC3)cc2)cc1 | 100 | 100 | 93.33 | 100 |
| COc1ccccc1N1C(=N)SC(=Cc2ccc(OCc3ccccc3F)cc2)C1=O | 100 | 100 | 100 | 100 |
| CCOC(=O)c1c[nH]c2c(CC)cccc2c1=O | 100 | 100 | 100 | 100 |
| CCCCc1c(CCC)c(=N)c2ccccc2n1C.I | 100 | 100 | 100 | 100 |
